According to ChEMBL document CHEMBL1275601, “Striking species difference in the contribution of concentrative nucleoside transporter 2 to nucleoside uptake between mouse and rat hepatocytes” (Antimicrob Agents Chemother, 2010):
Activity calls are given as the source filed them. The rule behind the calls is not given here.

Key:
Assay type in all cases: cell-based
[1] = target: T1, Equilibrative nucleoside transporter 1 (Rattus norvegicus) (UniProt O54698); assay: Transport through ENT1 in rat hepatocytes by oil filtration assay in presence 100 uM of transporter inhibitor NBMRP; conditions: Hepatocyte
T1 sequence (whole entry): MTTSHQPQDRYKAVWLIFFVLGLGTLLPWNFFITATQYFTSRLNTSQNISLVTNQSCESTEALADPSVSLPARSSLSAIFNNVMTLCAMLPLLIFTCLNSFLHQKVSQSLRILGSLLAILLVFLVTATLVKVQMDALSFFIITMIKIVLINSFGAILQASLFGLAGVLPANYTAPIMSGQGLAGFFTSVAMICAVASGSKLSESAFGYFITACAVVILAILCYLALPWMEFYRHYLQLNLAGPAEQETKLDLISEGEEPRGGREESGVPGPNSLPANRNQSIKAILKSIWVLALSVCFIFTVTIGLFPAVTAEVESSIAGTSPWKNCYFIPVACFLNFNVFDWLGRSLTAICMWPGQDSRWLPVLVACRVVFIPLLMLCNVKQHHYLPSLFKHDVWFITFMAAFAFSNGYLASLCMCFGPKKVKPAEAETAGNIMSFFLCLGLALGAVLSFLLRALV

[2] = target: T2, Equilibrative nucleoside transporter 2 (Rattus norvegicus) (UniProt O54699); assay: Transport through ENT2 in rat hepatocytes by oil filtration assay in presence 100 uM of transporter inhibitor NBMRP; conditions: Hepatocyte
T2 sequence (whole entry): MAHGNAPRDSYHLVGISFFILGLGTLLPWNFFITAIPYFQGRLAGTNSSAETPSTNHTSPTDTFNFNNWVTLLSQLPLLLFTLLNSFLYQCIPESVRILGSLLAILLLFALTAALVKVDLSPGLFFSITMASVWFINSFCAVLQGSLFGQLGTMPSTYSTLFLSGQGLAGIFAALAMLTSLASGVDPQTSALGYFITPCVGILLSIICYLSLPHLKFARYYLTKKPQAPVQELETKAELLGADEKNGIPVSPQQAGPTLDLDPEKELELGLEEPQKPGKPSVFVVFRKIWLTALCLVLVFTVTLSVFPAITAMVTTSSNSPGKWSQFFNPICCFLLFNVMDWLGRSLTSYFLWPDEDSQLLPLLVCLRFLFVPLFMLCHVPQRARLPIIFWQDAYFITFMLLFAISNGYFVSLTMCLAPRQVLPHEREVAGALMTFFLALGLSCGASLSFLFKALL

Hepatocyte [3] = assay: Transport through CNT3 in mouse hepatocytes by oil filtration assay in presence of sodium ions in Kreb-henseleit buffer
Hepatocyte [4] = assay: Transport through CNT3 in rat hepatocytes by oil filtration assay in presence of sodium ions in Kreb-henseleit buffer containing 100 uM NBMPR and 1 mM uridine
Hepatocyte [5] = assay: Transport through CNT3 in rat hepatocytes by oil filtration assay in presence of sodium ions in Kreb-henseleit buffer containing 100 uM NBMPR and thymidine
[6] = target: T3, Sodium/nucleoside cotransporter 1 (Rattus norvegicus) (UniProt Q62674); assay: Transport through CNT1 in rat hepatocytes by oil filtration assay in presence of sodium ions in Kreb-henseleit buffer containing 100 uM NBMPR and 1 mM uridine; conditions: Hepatocyte
T3 sequence (whole entry): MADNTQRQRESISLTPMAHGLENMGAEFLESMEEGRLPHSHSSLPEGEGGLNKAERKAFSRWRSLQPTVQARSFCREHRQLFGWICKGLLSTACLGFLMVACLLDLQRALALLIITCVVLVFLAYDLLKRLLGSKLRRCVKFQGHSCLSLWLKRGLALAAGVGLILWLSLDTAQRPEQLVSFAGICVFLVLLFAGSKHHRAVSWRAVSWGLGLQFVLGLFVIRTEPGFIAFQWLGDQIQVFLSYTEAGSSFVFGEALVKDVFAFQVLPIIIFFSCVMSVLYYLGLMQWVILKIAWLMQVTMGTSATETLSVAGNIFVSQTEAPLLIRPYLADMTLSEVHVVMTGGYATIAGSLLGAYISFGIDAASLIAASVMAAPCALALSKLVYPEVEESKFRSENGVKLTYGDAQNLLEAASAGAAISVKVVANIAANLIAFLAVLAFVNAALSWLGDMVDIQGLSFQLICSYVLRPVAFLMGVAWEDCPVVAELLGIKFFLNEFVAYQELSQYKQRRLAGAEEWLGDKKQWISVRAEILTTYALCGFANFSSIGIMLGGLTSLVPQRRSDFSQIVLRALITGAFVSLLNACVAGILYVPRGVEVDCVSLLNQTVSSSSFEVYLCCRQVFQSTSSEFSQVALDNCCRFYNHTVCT

[7] = target: T3, Sodium/nucleoside cotransporter 1 (Rattus norvegicus); assay: Transport through CNT1 in rat hepatocytes by oil filtration assay in presence of sodium ions in Kreb-henseleit buffer; conditions: Hepatocyte
[8] = target: T4, Equilibrative nucleoside transporter 2 (Mus musculus) (UniProt Q61672); assay: Transport through ENT2 in mouse hepatocytes by oil filtration assay in presence 100 uM of transporter inhibitor NBMRP; conditions: Hepatocyte
T4 sequence (whole entry): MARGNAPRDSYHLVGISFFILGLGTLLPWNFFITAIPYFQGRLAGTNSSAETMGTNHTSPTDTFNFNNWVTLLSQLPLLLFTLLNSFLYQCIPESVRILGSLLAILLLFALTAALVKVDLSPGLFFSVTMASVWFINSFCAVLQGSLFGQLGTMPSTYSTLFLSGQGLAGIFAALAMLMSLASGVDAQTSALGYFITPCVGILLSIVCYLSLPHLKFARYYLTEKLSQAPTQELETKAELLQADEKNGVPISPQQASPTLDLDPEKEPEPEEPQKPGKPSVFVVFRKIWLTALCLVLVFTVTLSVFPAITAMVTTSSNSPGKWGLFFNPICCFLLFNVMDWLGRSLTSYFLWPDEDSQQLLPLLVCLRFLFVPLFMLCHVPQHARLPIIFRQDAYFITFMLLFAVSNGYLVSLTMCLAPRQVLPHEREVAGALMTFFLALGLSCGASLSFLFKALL

[9] = target: T3, Sodium/nucleoside cotransporter 1 (Rattus norvegicus); assay: Transport through CNT1 in rat hepatocytes by oil filtration assay; conditions: Hepatocyte

| Compound | Activity [1] | Activity [2] | Activity (Hepatocyte [3]) | Activity (Hepatocyte [4]) | Activity (Hepatocyte [5]) | Activity [6] | Activity [7] | Activity [8] | Activity [9] |
| --- | --- | --- | --- | --- | --- | --- | --- | --- | --- |
| Nc1ncnc2c1ncn2[C@@H]1O[C@H](CO)[C@@H](O)[C@H]1O | inactive | inactive | inactive | inactive | inactive | inactive | Active | inactive | inactive |
| NC(=O)c1ncn([C@@H]2O[C@H](CO)[C@@H](O)[C@H]2O)n1 | inactive | inactive | inactive | inactive | inactive | inactive | Active | inactive | Active |
